The values that follow come from patent US5976497A, “Dopamine D4 receptor ligands” (Resolution Pharmaceuticals, Inc., priority 1997, dated 1999).

The target in one assay is T1, D4 (Homo sapiens, UniProt P21917, DEL265-296).
T1 construct: expressed in transfected cells; host or cells: HEK 298 cells (so in the source); membrane preparations
T1 sequence (P21917 with tags, fused parts or gaps DEL265-296): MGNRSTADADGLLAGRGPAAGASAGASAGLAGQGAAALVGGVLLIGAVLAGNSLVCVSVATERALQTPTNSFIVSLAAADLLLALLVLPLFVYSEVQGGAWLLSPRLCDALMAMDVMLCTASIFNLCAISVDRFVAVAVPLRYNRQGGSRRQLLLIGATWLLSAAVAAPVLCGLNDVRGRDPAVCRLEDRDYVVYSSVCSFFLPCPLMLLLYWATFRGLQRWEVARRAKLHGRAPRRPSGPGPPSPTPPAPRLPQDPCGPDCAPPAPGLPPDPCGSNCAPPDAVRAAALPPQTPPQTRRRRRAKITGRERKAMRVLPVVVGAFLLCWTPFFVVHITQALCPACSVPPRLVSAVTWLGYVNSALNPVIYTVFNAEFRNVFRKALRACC
Description: D4 receptor-binding affinity (reduction of ^3 H-spiperone binding). Particulars: for Ki: ^3 H-spiperone displacement, Ki by Cheng and Prusoff transformation of IC50. Here is the method: (§1) The potency of the test compound to reduce ^3 H-spiperone binding is directly correlated to its binding affinity for the receptor.
(§2) The test compounds were assayed at a range of concentrations and the % inhibition of ^3 H-spiperone binding at each test concentration was measured. Specific binding in the absence of test compound is the difference of total binding minus non-specific binding and similarly specific binding (in the presence of test compound) is the difference of displacement binding minus non-specific binding.
(§3) where [L] is the concentration of ^3 H-spiperone used in the assay and KD is the dissociation constant of ^3 H-spiperone determined independently under the same binding conditions.

In a further assay the target is T2, D2 (Homo sapiens, UniProt P14416).
T2 construct: expressed in transfected cells; host or cells: GH4C1 (rat pituitary) cells, stably transfected; membrane preparations
T2 sequence (P14416 1-414 isoform P14416-2): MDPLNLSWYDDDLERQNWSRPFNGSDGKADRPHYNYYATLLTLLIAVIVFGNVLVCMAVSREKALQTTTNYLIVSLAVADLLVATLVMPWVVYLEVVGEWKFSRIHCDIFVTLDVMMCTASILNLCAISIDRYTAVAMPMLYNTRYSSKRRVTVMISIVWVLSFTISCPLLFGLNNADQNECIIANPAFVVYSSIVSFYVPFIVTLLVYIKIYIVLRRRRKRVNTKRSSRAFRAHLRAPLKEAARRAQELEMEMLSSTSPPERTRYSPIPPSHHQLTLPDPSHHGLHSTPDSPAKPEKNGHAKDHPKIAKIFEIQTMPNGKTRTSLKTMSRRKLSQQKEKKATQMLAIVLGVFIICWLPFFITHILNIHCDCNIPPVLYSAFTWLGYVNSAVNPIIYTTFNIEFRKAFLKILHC
Description: D2 receptor-binding affinity (reduction of ^3 H-spiperone binding). Particulars: for Ki: ^3 H-spiperone displacement, Ki by Cheng and Prusoff transformation of IC50. Here is the method: as §1, §2, §3

The target of a further assay is D4 receptor. Particulars: marketed products, background statement; cited from earlier work.
Assay [1] has as its system D4 receptor relative to the D2 receptor. The conditions noted are these: marketed products, background statement; cited from earlier work.

Turning to “3-[4-(5-iodopyridin-2-yl)-piperazin-1-yl]methyl-1H-pyrrolo[2,3-b]pyridine [Example 2]”, the results for the inhibition constant (Ki) at D4 and at D2 were 0.91 nM and 621 nM, respectively.

Turning to “3-[4-(pyridin-2-yl)-piperazin-1-yl]methyl-1H-pyrrolo[2,3-b]pyridine [Example 1]”, the Ki (commonly a dissociation constant, usually derived from enzyme kinetics or from competition with a known ligand) turned out to be 1 nM at D4 and 3660 nM at D2.

As to `Brc1ccc(N2CCN(Cc3c[nH]c4ncccc34)CC2)nc1` [Example 3, 3-[4-(5-bromopyridin-2-yl)-piperazin-1-yl]methyl-1H-pyrrolo[2,3-b]pyridine], the inhibition (in general, the drop in the measured response relative to a control, in per cent) at 0.001 µM at D4 (1 nM, ^3 H-spiperone) was 26%; at D2 (1 nM, ^3 H-spiperone), below 10%. For the same compound, the inhibition at 0.01 µM was 78% on D4 (10 nM, ^3 H-spiperone) and below 10% on D2 (10 nM, ^3 H-spiperone). Besides, the inhibition at 0.1 µM was 98% at D4 (100 nM, ^3 H-spiperone) and below 10% at D2 (100 nM, ^3 H-spiperone).

As to `CN1CCN(C2=Nc3cc(Cl)ccc3Oc3ccccc32)CC1` [isoloxapine], the Ki on D4 receptor is around 20 nM. For the same compound, the “preference for binding to the D4 receptor relative to the D2 receptor” value in assay [1] is given as “about 10 fold”.
